Reference: PMC10620772, “Design, synthesis, and biological evaluation of new pyrimidine-5-carbonitrile derivatives as novel anti-cancer, dual EGFR^WT/COX-2 inhibitors with docking studies” (RSC Advances, 2023)

Tests used:
Experiment in all cases: NCI60 antitumor screening
Type in all cases: cell-based, human
[1] = test system: HOP-62; conditions: for inhibition at 10 µM: Homo sapiens, 10 μM single dose, HOP-62 (non-small cell lung cancer), read-out: growth inhibition percent (GI%)
[2] = test system: K-562; conditions: for inhibition at 10 µM: Homo sapiens, 10 μM single dose, (leukaemia), read-out: growth inhibition percent (GI%)
[3] = test system: SK-MEL-5; conditions: Homo sapiens; 10 μM single dose; SK-MEL-5 (melanoma); read-out: growth inhibition percent (GI%)
[4] = test system: SNB-19; conditions: Homo sapiens; 10 μM single dose; SNB-19 (CNS cancer); read-out: growth inhibition percent (GI%)
[5] = test system: DU-145; conditions: Homo sapiens, DU-145; read-out: growth inhibition percent (GI%)
[6] = test system: MCF7; conditions: Homo sapiens; 10 μM single dose; MCF7 (breast cancer); read-out: growth inhibition percent (GI%)
[7] = test system: ACHN; conditions: Homo sapiens; 10 μM single dose; ACHN (renal cancer); read-out: growth inhibition percent (GI%)
[8] = test system: PC-3; conditions: Homo sapiens; 10 μM single dose; PC-3 (prostate cancer); read-out: growth inhibition percent (GI%)
[9] = test system: 786–0; conditions: for inhibition at 10 µM: Homo sapiens, 10 μM single dose, 786–0 (renal cancer), read-out: growth inhibition percent (GI%)
[10] = test system: HCT-116; conditions: Homo sapiens; 10 μM single dose; HCT-116 (colon cancer); read-out: growth inhibition percent (GI%)
[11] = test system: SF-268; conditions: Homo sapiens; 10 μM single dose; SF-268 (CNS cancer); read-out: growth inhibition percent (GI%)
[12] = test system: HS 578T; conditions: for inhibition at 10 µM: Homo sapiens, 10 μM single dose, HS 578T (breast cancer), read-out: growth inhibition percent (GI%)
[13] = test system: SNB-75; conditions: for inhibition at 10 µM: Homo sapiens, 10 μM single dose, SNB-75 (CNS cancer), read-out: growth inhibition percent (GI%)
[14] = test system: MDA-MB-468; conditions: Homo sapiens; 10 μM single dose; MDA-MB-468 (breast cancer); read-out: growth inhibition percent (GI%)
[15] = test system: OVCAR-4; conditions: for inhibition at 10 µM: Homo sapiens, 10 μM single dose, OVCAR-4 (ovarian cancer), read-out: growth inhibition percent (GI%)
[16] = test system: NCI-H460; conditions: Homo sapiens; 10 μM single dose; NCI-H460 (non-small cell lung cancer); read-out: growth inhibition percent (GI%)
[17] = test system: UO-31; conditions: Homo sapiens; 10 μM single dose; UO-31 (renal cancer); read-out: growth inhibition percent (GI%)
[18] = test system: NCI-H322M; conditions: Homo sapiens; 10 μM single dose; NCI-H322M (non-small cell lung cancer); read-out: growth inhibition percent (GI%)
[19] = test system: RPMI-8226; conditions: Homo sapiens; 10 μM single dose; RPMI-8226 (leukaemia); read-out: growth inhibition percent (GI%)
[20] = test system: CCRF-CEM; conditions: Homo sapiens; 10 μM single dose; CCRF-CEM (leukaemia); read-out: growth inhibition percent (GI%)
[21] = test system: SK-OV-3; conditions: Homo sapiens; 10 μM single dose; SK-OV-3 (ovarian cancer); read-out: growth inhibition percent (GI%)
[22] = test system: UACC-257; conditions: Homo sapiens; 10 μM single dose; UACC-257 (melanoma); read-out: growth inhibition percent (GI%)
[23] = test system: COLO 205; conditions: Homo sapiens; 10 μM single dose; COLO 205 (colon cancer); read-out: growth inhibition percent (GI%)
[24] = test system: HCC-2998; conditions: Homo sapiens; 10 μM single dose; HCC-2998 (colon cancer); read-out: growth inhibition percent (GI%)
[25] = test system: NCI-H23; conditions: Homo sapiens; 10 μM single dose; NCI-H23 (non-small cell lung cancer); read-out: growth inhibition percent (GI%)
[26] = test system: NCI/ADR-RES; conditions: Homo sapiens; 10 μM single dose; NCI/ADR-RES (ovarian cancer); read-out: growth inhibition percent (GI%)
[27] = test system: OVCAR-8; conditions: Homo sapiens; 10 μM single dose; OVCAR-8 (ovarian cancer); read-out: growth inhibition percent (GI%)
[28] = test system: MOLT-4; conditions: Homo sapiens; 10 μM single dose; MOLT-4 (leukaemia); read-out: growth inhibition percent (GI%)
[29] = test system: SK-MEL-2; conditions: Homo sapiens; 10 μM single dose; SK-MEL-2 (melanoma); read-out: growth inhibition percent (GI%)
[30] = test system: SN12C; conditions: Homo sapiens; 10 μM single dose; SN12C (renal cancer); read-out: growth inhibition percent (GI%)
[31] = test system: SF-539; conditions: for inhibition at 10 µM: Homo sapiens, 10 μM single dose, SF-539 (CNS cancer), read-out: growth inhibition percent (GI%)
[32] = test system: MALME-3M; conditions: Homo sapiens; 10 μM single dose; MALME-3M (melanoma); read-out: growth inhibition percent (GI%)
[33] = test system: NCI-H522; conditions: Homo sapiens; 10 μM single dose; NCI-H522 (non-small cell lung cancer); read-out: growth inhibition percent (GI%)
[34] = test system: HOP-92; conditions: Homo sapiens; 10 μM single dose; HOP-92 (non-small cell lung cancer); read-out: growth inhibition percent (GI%)
[35] = test system: SK-MEL-28; conditions: Homo sapiens; 10 μM single dose; SK-MEL-28 (melanoma); read-out: growth inhibition percent (GI%)

Cc1ccc(CSc2nc(-c3ccc(F)cc3)c(C#N)c(N3CCN(C)CC3)n2)cc1 [4l, 4-(4-Fluorophenyl)-2-((4-methylbenzyl)thio)-6-(4-methylpiperazin-1-yl) pyrimidine-5-carbonitrile]
inhibition at 10 µM [1]: 12.8%
inhibition at 10 µM [2]: 28.6%
inhibition at 10 µM [3]: < 10%
inhibition at 10 µM [4]: 14.3%
inhibition at 10 µM [5]: < 10%
inhibition at 10 µM [6]: 12.8%
inhibition at 10 µM [7]: 29.9%
inhibition at 10 µM [8]: 24.2%
inhibition at 10 µM [9]: 44.2%
inhibition at 10 µM [10]: 13.1%
inhibition at 10 µM [11]: < 10%
inhibition at 10 µM [12]: 31.1%
inhibition at 10 µM [13]: 35.6%
inhibition at 10 µM [14]: < 10%
inhibition at 10 µM [15]: < 10%
inhibition at 10 µM [16]: < 10%
inhibition at 10 µM [17]: 17.6%
inhibition at 10 µM [18]: 18%
inhibition at 10 µM [19]: 15.5%
inhibition at 10 µM [20]: 15.2%
inhibition at 10 µM [21]: < 10%
inhibition at 10 µM [22]: < 10%
inhibition at 10 µM [23]: < 10%
inhibition at 10 µM [24]: < 10%
inhibition at 10 µM [25]: < 10%
inhibition at 10 µM [26]: 12.7%
inhibition at 10 µM [27]: 11.9%
inhibition at 10 µM [28]: 10.5%
inhibition at 10 µM [29]: < 10%
inhibition at 10 µM [30]: 11.9%
inhibition at 10 µM [31]: 31.8%
inhibition at 10 µM [32]: 11.7%
inhibition at 10 µM [33]: 33.4%
inhibition at 10 µM [34]: 39.3%
inhibition at 10 µM [35]: < 10%

CN1CCN(c2nc(SCc3ccccc3)nc(-c3ccc(F)cc3)c2C#N)CC1 [4i, 2-(Benzylthio)-4-(4-fluorophenyl)-6-(4-methylpiperazin-1-yl) pyrimidine-5-carbonitrile]
GI% ([1]; 10 μM one-dose, Table 1): — (GI value > 70%)
inhibition at 10 µM [1]: 10.3%
GI% ([2]; 10 μM one-dose, Table 1): 73.15%
inhibition at 10 µM [2]: 73.2%
inhibition at 10 µM [3]: 33.6%
inhibition at 10 µM [4]: 10%
inhibition at 10 µM [5]: < 10%
inhibition at 10 µM [6]: 30.8%
inhibition at 10 µM [7]: 14.8%
inhibition at 10 µM [8]: 31.9%
GI% ([9]; 10 μM one-dose, Table 1): — (GI value > 70%)
inhibition at 10 µM [9]: 29.3%
inhibition at 10 µM [10]: 45.8%
inhibition at 10 µM [11]: 26.8%
GI% ([12]; 10 μM one-dose, Table 1): — (GI value > 70%)
inhibition at 10 µM [12]: 32%
GI% ([13]; 10 μM one-dose, Table 1): — (GI value > 70%)
inhibition at 10 µM [13]: 41%
inhibition at 10 µM [14]: 29.2%
GI% ([15]; 10 μM one-dose, Table 1): — (GI value > 70%)
inhibition at 10 µM [15]: 22.5%
inhibition at 10 µM [16]: 35.1%
inhibition at 10 µM [17]: 36%
inhibition at 10 µM [18]: 16%
inhibition at 10 µM [19]: 56.4%
inhibition at 10 µM [20]: 37.9%
inhibition at 10 µM [21]: < 10%
inhibition at 10 µM [22]: 27.8%
inhibition at 10 µM [23]: 13.6%
inhibition at 10 µM [24]: < 10%
inhibition at 10 µM [25]: < 10%
inhibition at 10 µM [26]: < 10%
inhibition at 10 µM [27]: 14.1%
inhibition at 10 µM [28]: 49.8%
inhibition at 10 µM [29]: < 10%
inhibition at 10 µM [30]: 12.6%
GI% ([31]; 10 μM one-dose, Table 1): — (GI value > 70%)
inhibition at 10 µM [31]: 14.4%
inhibition at 10 µM [32]: < 10%
inhibition at 10 µM [33]: 31.7%
inhibition at 10 µM [34]: 22.7%
inhibition at 10 µM [35]: < 10%

N#Cc1c(-c2ccc(F)cc2)nc(SCc2ccccc2)nc1N1CCN(c2ccccc2)CC1 [4m, 2-(Benzylthio)-4-(4-fluorophenyl)-6-(4-phenylpiperazin-1-yl) pyrimidine-5-carbonitrile]
inhibition at 10 µM [1]: < 10%
inhibition at 10 µM [2]: 10.6%
inhibition at 10 µM [3]: < 10%
inhibition at 10 µM [4]: < 10%
inhibition at 10 µM [5]: < 10%
inhibition at 10 µM [6]: 16.1%
inhibition at 10 µM [7]: < 10%
inhibition at 10 µM [8]: < 10%
inhibition at 10 µM [9]: < 10%
inhibition at 10 µM [10]: < 10%
inhibition at 10 µM [11]: < 10%
inhibition at 10 µM [12]: < 10%
inhibition at 10 µM [13]: < 10%
inhibition at 10 µM [14]: < 10%
inhibition at 10 µM [15]: < 10%
inhibition at 10 µM [16]: < 10%
inhibition at 10 µM [17]: < 10%
inhibition at 10 µM [18]: < 10%
inhibition at 10 µM [19]: 14.2%
inhibition at 10 µM [20]: 11.1%
inhibition at 10 µM [21]: < 10%
inhibition at 10 µM [22]: < 10%
inhibition at 10 µM [23]: < 10%
inhibition at 10 µM [24]: < 10%
inhibition at 10 µM [25]: < 10%
inhibition at 10 µM [26]: < 10%
inhibition at 10 µM [27]: < 10%
inhibition at 10 µM [28]: < 10%
inhibition at 10 µM [29]: < 10%
inhibition at 10 µM [30]: < 10%
inhibition at 10 µM [31]: < 10%
inhibition at 10 µM [32]: < 10%
inhibition at 10 µM [33]: < 10%
inhibition at 10 µM [34]: < 10%
inhibition at 10 µM [35]: < 10%

N#Cc1c(-c2ccc(F)cc2)nc(SCc2ccc([N+](=O)[O-])cc2)nc1N1CCN(c2ccccc2)CC1 [4o, 4-(4-Fluorophenyl)-2-((4-nitrobenzyl)thio)-6-(4-phenylpiperazin-1-yl)pyrimidine-5-carbonitrile]
inhibition at 10 µM [1]: < 10%
inhibition at 10 µM [2]: < 10%
inhibition at 10 µM [3]: < 10%
inhibition at 10 µM [4]: < 10%
inhibition at 10 µM [5]: < 10%
inhibition at 10 µM [6]: 14.8%
inhibition at 10 µM [7]: < 10%
inhibition at 10 µM [8]: < 10%
inhibition at 10 µM [9]: < 10%
inhibition at 10 µM [10]: < 10%
inhibition at 10 µM [11]: < 10%
inhibition at 10 µM [12]: < 10%
inhibition at 10 µM [13]: 12.4%
inhibition at 10 µM [14]: 10.9%
inhibition at 10 µM [15]: 12.3%
inhibition at 10 µM [16]: < 10%
inhibition at 10 µM [17]: < 10%
inhibition at 10 µM [18]: < 10%
inhibition at 10 µM [19]: 15.3%
inhibition at 10 µM [20]: < 10%
inhibition at 10 µM [21]: < 10%
inhibition at 10 µM [22]: < 10%
inhibition at 10 µM [23]: < 10%
inhibition at 10 µM [24]: < 10%
inhibition at 10 µM [25]: < 10%
inhibition at 10 µM [26]: < 10%
inhibition at 10 µM [27]: < 10%
inhibition at 10 µM [28]: < 10%
inhibition at 10 µM [29]: < 10%
inhibition at 10 µM [30]: < 10%
inhibition at 10 µM [31]: < 10%
inhibition at 10 µM [32]: < 10%
inhibition at 10 µM [33]: < 10%
inhibition at 10 µM [34]: < 10%
inhibition at 10 µM [35]: < 10%
